Assay results published in publication PMC8472287, “Betulinic Acid Decorated with Polar Groups and Blue Emitting BODIPY Dye: Synthesis, Cytotoxicity, Cell-Cycle Analysis and Anti-HIV Profiling” (Biomedicines, 2021).
Where a name gives a salt, the structure may show the parent alone. Read-outs that look alike come from different tables or passages of the source.

Key:
A549 = test: MTS cytotoxicity assay, A549; assay type: cell-based; settings: Homo sapiens, 72 h, 3-day incubation
Excerpt: (§1) All cells (if not indicated otherwise) were purchased from the American Tissue Culture Collection (ATCC; Manassas, VA, USA). The highly chemosensitive CCRF-CEM line is derived from T lymphoblastic leukaemia, K562 represent cells of chronic myelogenous leukaemia. Colorectal adenocarcinoma HCT116 cell line and its p53 gene knockout counterpart (HCT116p53−/−, Horizon Discovery Ltd., Cambridge, UK) were used as models to assess the impact of p53 deficiency on cell line sensitivity. A549 cells are derived from lung adenocarcinoma and U2OS from human osteosarcoma. CEM-DNR and K562-Tax are well-characterized daunorubicin and paclitaxel-resistant sublines of CCRF-CEM and K562. The CEM-DNR resistant cells overexpress the P-glycoprotein and LRP protein, the K562-Tax overexpress P-glycoprotein but is losing the expression of LRP, which is present at parental K562 cell line. P-glycoprotein belongs to the ABC transporters’ family and is involved in the primary and acquired multidrug resistance phenomenon by the efflux of toxic compounds, LRP protein is involved in the lysosomal degradation. MRC-5 and BJ cell lines were used as a non-tumour control and represent human fibroblasts. The cells were maintained in Nunc/Corning 80 cm^2 plastic tissue culture flasks and cultured in cell culture medium according to ATCC or Horizon recommendations (DMEM/RPMI 1640 with 5 g/L-glucose, 2 mM glutamine, 100 U/mL penicillin, […] streptomycin, 10% fetal calf serum, and NaHCO3).
(§2) To perform the cytotoxicity MTS assay, cell suspensions were prepared and diluted according to the cell type and the expected target cell density (25,000–35,000 cells/mL) based on cell growth characteristics. Cells were added by an automatic pipettor (30 μL) into 384 well microtiter plates. All tested compounds were dissolved in 100% DMSO and four-fold dilutions of the intended test concentration were added in 0.15 μL aliquots at time zero to the microtiter plate wells by the echo-acoustic liquid handler Echo550 (Labcyte, San Jose, CA, USA). The experiments were performed in technical duplicates and at least three biological replicates. The cells were incubated with the tested compounds for 72 h at 37 °C, in a 5% CO2 atmosphere at 99% humidity. At the end of the incubation period, the cells were assayed by using the MTS test. Aliquots (5 µL) of the MTS stock solution were pipetted into each well and incubated for an additional 1–4 h. After this incubation period, the optical density (OD) was measured at 490 nm with an Envision microplate reader (Perkin Elmer, Waltham, Massachusetts, USA). Tumour cell survival (TCS) was calculated using the following equation: TCS = (ODdrug-exposed well/mean ODcontrol wells) × 100%.

K562 = test: MTS cytotoxicity assay, K562; assay type: cell-based; settings: Homo sapiens, 72 h, 3-day incubation
Excerpt: as §1, §2

CCRF-CEM lymphoblasts [1] = test: BrDU incorporation analysis (DNA synthesis); assay type: cell-based, human; settings: 24 h incubation
Procedure: Cells were cultivated as in the method above and pulse-labelled with 10 μM 5-bromo-2-deoxyuridine (BrDU) for 30 min before collection to the test tubes. The cells were washed with cold 1 × PBS and fixed in ice-cold 70% ethanol. Before analysis, they were washed with 1 × PBS and incubated in 2M HCl for 30 min at room temperature. Following neutralization with 0.1M Na2B4O7 (borax), the cells were washed with 0.5% Tween-20 and 1% BSA in 1 × PBS. The cell pellets were stained using a primary anti-BrdU antibody (Exbio, Vestec, Czech Republic) for 30 min at room temperature and a secondary anti-mouse-FITC antibody (Sigma). The samples were then incubated with propidium iodide (0.1 mg mL^−1), treated with RNase A (0.5 mg mL^−1) for 1 h at room temperature in the dark and analysed as above.

MRC-5 = test: MTS cytotoxicity assay, MRC-5; assay type: cell-based; settings: Homo sapiens, MRC5, 72 h, MRC-5 normal fibroblasts, 3-day incubation
Excerpt: as §1, §2

CCRF-CEM lymphoblasts [2] = test: BrU incorporation analysis (RNA synthesis); assay type: cell-based, human; settings: 24 h, 5 × IC50 (high concentration)
BJ = test: MTS cytotoxicity assay, BJ; assay type: cell-based; settings: Homo sapiens, 72 h, BJ normal fibroblasts, 3-day incubation
Excerpt: as §1, §2

in vitro = settings: human
HCT116 = test: MTS cytotoxicity assay, HCT116; assay type: cell-based; settings: Homo sapiens, HCT-116, 72 h, 3-day incubation
Excerpt: as §1, §2

HCT116p53−/− = test: MTS cytotoxicity assay, HCT116p53−/−; assay type: cell-based; settings: Homo sapiens, HCT116-p53-null, 72 h, HCT116p53−/− (null p53 gene), 3-day incubation
Excerpt: as §1, §2

U2OS = test: MTS cytotoxicity assay, U2OS; assay type: cell-based; settings: Homo sapiens, 72 h, 3-day incubation
Excerpt: as §1, §2

CEM-DNR = test: MTS cytotoxicity assay, CEM-DNR; assay type: cell-based; settings: Homo sapiens, 72 h, CEM-DNR (daunorubicin resistant), 3-day incubation
Excerpt: as §1, §2

CCRF-CEM = test: MTS cytotoxicity assay, CCRF-CEM; assay type: cell-based; settings: Homo sapiens, 72 h, 3-day incubation
Excerpt: as §1, §2

[3] = tested on: CA-SP1 processing of HIV-1 Gag polyprotein; test: Western blot of released virions with anti-HIV-1 CA antibody; assay type: cell-based
K562-Tax = test: MTS cytotoxicity assay, K562-Tax; assay type: cell-based; settings: Homo sapiens, 72 h, K562-Tax (paclitaxel-resistant), 3-day incubation
Excerpt: as §1, §2

[4] = tested on: VSV-G pseudotyped HIV-1 particles; test: microbe, parasite or virus in culture; assay type: cell-based; settings: for IC50: read-out: IC50i (50% infection inhibition)
[5] = Human immunodeficiency virus 1, HEK293, 48 h

Structure (SMILES)	IC50 (A549)	IC50 (K562)	fraction of proliferating BrDU positive CCRF-CEM cells (in words) (CCRF-CEM lymphoblasts [1])	cytotoxic effect in the cell line panel (in words) (entire cell line panel)	IC50 (MRC-5)	RNA synthesis by BrU (in words) (CCRF-CEM lymphoblasts [2])	IC50 (BJ)	IC50 (in vitro)	IC50 (HCT116)	IC50 (HCT116p53−/−)	IC50 (U2OS)	IC50 (CEM-DNR)	IC50 (CCRF-CEM)	CA forms identified in released viruses (CA-SP1 processing) [3]	IC50 (K562-Tax)	IC50 [4, 5]	IC50 [4]	anti-HIV-1 activity (in words) [4]
C=C(C)[C@@H]1CC[C@]2(C(=O)NCCCNC(=O)OC(C)(C)C)CC[C@]3(C)[C@H](CC[C@@H]4[C@@]5(C)CC[C@H](OC(=O)CC(C)(C)C(=O)O)C(C)(C)[C@@H]5CC[C@]43C)[C@@H]12 [Compound 8, 4-{[(3β)-28-({3-[(Tert-butoxycarbonyl)amino]propyl}amino)-28-oxolup-20(29)-ene-3--yl]oxy}-2,2-dimethyl-4-oxobutanoic acid]	18.8 µM	19.2 µM	reduced the fraction of proliferating BrDU positive CCRF-CEM cells	medium cytotoxicity	23.1 µM	stalled RNA synthesis	21.5 µM	37.8 µM	13.2 µM	21.6 µM	17.2 µM	9.24 µM	8.18 µM	not only fully processed p24 CA, but also p25 CA-SP1 protein	13.3 µM	–	–	–
C=C(C)[C@@H]1CC[C@]2(C(=O)NCCCN)CC[C@]3(C)[C@H](CC[C@@H]4[C@@]5(C)CC[C@H](OC(=O)CC(C)(C)C(=O)O)C(C)(C)[C@@H]5CC[C@]43C)[C@@H]12 [Compound 9, 4-{[(3β)-28-[(3-Aminopropyl)amino]-28-oxolup-20(29)-ene-3-yl]oxy}-2,2-dimethyl-4-oxo-butanooic acid hydrochloride]	> 50 µM	> 50 µM	–	inactive	> 50 µM	–	> 50 µM	> 40 µM	> 50 µM	> 50 µM	> 50 µM	> 50 µM	22.5 µM	not only fully processed p24 CA, but also p25 CA-SP1 protein	> 50 µM	14 µM	–	–
C=C(C)[C@@H]1CC[C@]2(C(=O)NCCCNC3=C4C=CC=[N+]4[B-](F)(F)n4cccc43)CC[C@]3(C)[C@H](CC[C@@H]4[C@@]5(C)CC[C@H](OC(=O)CC(C)(C)C(=O)O)C(C)(C)[C@@H]5CC[C@]43C)[C@@H]12 [Compound 10, 4-{[(3β)-28-{[N-(4,4-Difluoro-4-bora-3a,4a-diaza-s-indacene-8-yl)-3-aminopropyl]amino}-28-oxolup-20(29)-ene-3-yl]oxy}-2,2-dimethyl-4-oxobutanoic acid]	13.6 µM	23.2 µM	reduced the fraction of proliferating BrDU positive CCRF-CEM cells	medium cytotoxicity	14.1 µM	stalled RNA synthesis	15.5 µM	> 40 µM	7.92 µM	8.8 µM	12.4 µM	7 µM	2.92 µM	not only fully processed p24 CA, but also p25 CA-SP1 protein	12.2 µM	< 10 µM	8.4 µM	–
C=C(C)[C@@H]1CC[C@]2(C(=O)N3CCN(CCNC(=O)OC(C)(C)C)CC3)CC[C@]3(C)[C@H](CC[C@@H]4[C@@]5(C)CC[C@H](O)C(C)(C)[C@@H]5CC[C@]43C)[C@@H]12 [Compound 13, Tert-butyl-(2-{4-[(3β)-3-hydroxy-28-oxolup-20(29)-ene-28-yl]piperazine-1-yl}ethyl)-carbamate]	5.15 µM	5.09 µM	–	high cytotoxicity	5.18 µM	–	5.36 µM	> 40 µM	6.02 µM	4.99 µM	4.16 µM	4.76 µM	> 50 µM	–	8.77 µM	> 50 µM	–	did not exhibit any potent anti-HIV-1 activity
C=C(C)[C@@H]1CC[C@]2(C(=O)N3CCN(CCNC(=O)OC(C)(C)C)CC3)CC[C@]3(C)[C@H](CC[C@@H]4[C@@]5(C)CC[C@H](OC(=O)CC(C)(C)C(=O)O)C(C)(C)[C@@H]5CC[C@]43C)[C@@H]12 [Compound 16, 4-{[(3β)-28-(4-{2-[(Tert-butoxycarbonyl)amino]ethyl}piperazine-1-yl)-28-oxolup-20(29)-ene-3-yl]oxy}-2,2-dimethyl-4-oxobutanoic acid]	44.9 µM	47.9 µM	–	did not induce any cytotoxic effect	44.6 µM	–	47.6 µM	> 40 µM	46.6 µM	44.8 µM	44.6 µM	> 50 µM	> 50 µM	not only fully processed p24 CA, but also p25 CA-SP1 protein	> 50 µM	< 10 µM	9.1 µM	–
C=C(C)[C@@H]1CC[C@]2(C(=O)N3CCN(CCN)CC3)CC[C@]3(C)[C@H](CC[C@@H]4[C@@]5(C)CC[C@H](OC(=O)CC(C)(C)C(=O)O)C(C)(C)[C@@H]5CC[C@]43C)[C@@H]12 [Compound 17, 4-{[(3β)-28-[4-(2-Aminoethyl)piperazine-1-yl]-28-oxolup-20(29)-ene-3-yl]oxy}-2,2-dimethyl-4-oxobutanoic acid hydrochloride]	> 50 µM	> 50 µM	–	inactive	> 50 µM	stalled RNA synthesis	> 50 µM	> 40 µM	> 50 µM	> 50 µM	44.6 µM	> 50 µM	5.76 µM	not only fully processed p24 CA, but also p25 CA-SP1 protein	> 50 µM	< 10 µM	7.6 µM	–
